Measured values reported in patent publication US20230090255A1, “MAGL INHIBITOR, PREPARATION METHOD THEREFOR AND USE THEREOF” (LUNAN PHARMACEUTICAL GROUP CORPORATION, priority 2019, published 2023).
Marks after values point to notes of the source that are not given here.

What was measured:
[1] = test system: irritable bowel syndrome rats; experiment: Irritable bowel syndrome rats induced by early maternal separation; assay type: in vivo, SD rats; design: AWR scoring: scale not given here; conditions: for Colon 5-HT / Serum 5-HT / AWR scoring: IBS rats; for 5-HT level in colon and serum, in words / AWR scoring, in words: compared with the model group
Method: The newborn SD male rats were separated from the mother rat in lactation period for 3 h every day on the 2nd to the 21st day after the birth of the newborn SD rats, namely, the mother rat in lactation period was taken out of the cage at 8:30 a.m., and then the newborn rats were removed from the initial cage and put to another separate cage, then the cage was transferred to an adjacent room, then the newborn rats were returned to the initial cage 3 h later, namely, at 11:30 such that the newborn rats and the mother rat got together; the newborn rats were weaned on the 22nd day after birth and separated from the initial cage on the 30th day, grouped on the 60th day, and administered, 20 d in total.
Intragastric administration was performed within the administration period once a day with continuous administration for 20 d.
Test indicators: abdominal withdrawal reflex (AWR); test method: rats were fasted 18 h before the experiment and drank water freely, and narcotized with diethyl ether; then an air sac coated with paraffin oil was inserted into the rats’ colorectum for 4.0 cm, and a catheter outside the anus was fixed at the root of the rat tail with an adhesive tape, and connected with an injection syringe and a sphygmomanometer via three links. The rats were put to an organic glass inspection box (20 cmx12 cm×9 cm), after the rats were awake and fully adapted to the environment for 30 min, the experiment was started. 20, 40 and 60 mm Hg of pressure were respectively applied on the rats, and continuous expansion was performed for 20 s each time with a stimulus interval of 4 min; each pressure was performed for 3 times repeatedly for AWR scoring.
At the end of the experiment, the animals were dissected and weighed, and narcotized to take blood, then the content of 5-HT in serum was determined by high performance liquid chromatography. […] slightly with 0.5% sodium carboxymethylcellulose, and then sucked dry with a filter paper, and placed into a cryogenic tube, and preserved at -20° C. for further use, […] chromatography.

ulcerative colitis mice = experiment: Mice ulcerative colitis (DSS); assay type: in vivo, BALB/c mice; conditions: for Total times of hematochezia within the four periods / Colon length / IL-1 content: DSS mice; for Colon length: four periods; for IL-1 content: serum, ELISA; for IL-1 content, in words / colon length, in words / total times of hematochezia, in words: compared with the model group
Description: Healthy male SPF-level BALB/c mice (8-week old and body mass: (20±2) g).
Modeling: the mice were randomly divided into […] at the end of the quarantine, 10 pieces for each group. The mice in the normal group drank normal water freely, and the rest groups of mice drank 1.0%-1.5% DSS solution freely for modeling, 7 d later after modeling, the mice in the modeling group drank normal water freely for 7 d, and 14 d served as a modeling period for four continuous periods, and the mice in the modeling group were administered at the same time.
End point of the experiment: experimental administration was performed for four periods, and dissection was performed on the 3rd and 4th day of the recovery period of the 4th period.
Test indicators: the mice were weighed twice a week after the beginning of the administration; diarrhea and hematochezia of the mice were observed, and times of hematochezia were recorded.
At the end of the experiment, the mice were dissected and weighed, and narcotized to take blood, then serum was preserved at -80° C. Spleen was taken and weighed to calculate the spleen index. The content of IL-1β in serum was detected via ELISA. Colorectum was cut and taken to measure the length of colorectum, then immobilized by formaldehyde and dyed by HE to detect the pathological change.

[2] = target: T1, recombinant human protein MAGL (Homo sapiens, UniProt Q99685); experiment: MAGL enzyme analysis (Cayman MAGL inhibitor screening kit); assay type: biochemical; conditions: 4-nitrophenylacetic acid substrate, absorbance 410 nm, read-out: MAGLXIC50
T1 construct: purchased Cayman
T1 sequence (Q99685 1-303): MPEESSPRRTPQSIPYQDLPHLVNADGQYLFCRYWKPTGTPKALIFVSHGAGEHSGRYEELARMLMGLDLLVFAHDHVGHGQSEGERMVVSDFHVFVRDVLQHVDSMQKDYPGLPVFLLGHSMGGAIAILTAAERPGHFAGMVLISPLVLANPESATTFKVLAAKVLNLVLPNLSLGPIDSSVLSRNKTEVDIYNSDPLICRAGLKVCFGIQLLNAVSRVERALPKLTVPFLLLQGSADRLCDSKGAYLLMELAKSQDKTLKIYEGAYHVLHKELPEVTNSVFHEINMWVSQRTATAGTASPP
Method: 150 µL 1Xassay buffer, 10 µL recombinant human protein MAGL and 10 µL different concentrations of MAGL inhibitors (six points within 1 nM to 1000 nM) were added to per well of a 96-well plate. JZL195 (a positive control inhibitor) served as a positive control well, after incubation for 5 min at room temperature, per well was added with 10 µL MAGL substrate, and […] were vibrated for 10 s and placed for 10 min at room temperature, then an absorbance was detected at 410 nm. […] Graphad Prism 5.0 was taken to calculate IC50 curves fitting each inhibitor.

[3] = high dose 30 mg/kg ig 20 d, 20 mm Hg
[4] = high dose 30 mg/kg ig 20 d, 40 mm Hg
[5] = high dose 30 mg/kg ig 20 d, 60 mm Hg
[6] = low dose 7.5 mg/kg ig 20 d, 20 mm Hg
[7] = low dose 7.5 mg/kg ig 20 d, 40 mm Hg
[8] = low dose 7.5 mg/kg ig 20 d, 60 mm Hg
[9] = middle dose 15 mg/kg ig 20 d, 20 mm Hg
[10] = middle dose 15 mg/kg ig 20 d, 40 mm Hg
[11] = middle dose 15 mg/kg ig 20 d, 60 mm Hg

## O=C(Nc1cccc(Cl)c1)C1CCN(C(=O)c2cc3cc(F)ccc3[nH]2)CC1 [MAGLZ-II-18 (a)]
[1]; high dose 30 mg/kg ig 20 d
  Colon 5-HT: 13.90 ± 1.13 µg/mg
  Serum 5-HT: 29.44 ± 4.37 µg/mL
[1]; [3]
  AWR scoring: 1.96±0.46** *
[1]; [4]
  AWR scoring: 2.60±0.58
[1]; [5]
  AWR scoring: 3.00±0.54
[1]; low dose 7.5 mg/kg ig 20 d
  Colon 5-HT: 16.43 ± 2.15 µg/mg
  Serum 5-HT: 32.51 ± 5.01 µg/mL
[1]; [6]
  AWR scoring: 2.58±0.26
[1]; [7]
  AWR scoring: 3.06±0.38
[1]; [8]
  AWR scoring: 3.50±0.29
[1]; middle dose 15 mg/kg ig 20 d
  Colon 5-HT: 14.64 ± 2.17 µg/mg
  Serum 5-HT: 30.20 ± 5.59 µg/mL
[1]; [9]
  AWR scoring: 2.35±0.40
[1]; [10]
  AWR scoring: 3.02±0.51
[1]; [11]
  AWR scoring: 3.39±0.34
[1]
  5-HT level in colon and serum, in words: significantly decrease
  AWR scoring, in words: significantly decrease
Ulcerative colitis mice; high dose 30 mg/kg ig
  Total times of hematochezia within the four periods: 27.90±7.28
  Colon length: 7.72±0.92 cm
  IL-1 content: 36.22 ± 4.31 pg/mL
Ulcerative colitis mice; low dose 7.5 mg/kg ig
  Total times of hematochezia within the four periods: 33.60±5.83
  Colon length: 6.51±0.90 cm
  IL-1 content: 47.32 ± 9.06 pg/mL
Ulcerative colitis mice; middle dose 15 mg/kg ig
  Total times of hematochezia within the four periods: 29.90±8.95
  Colon length: 7.06±1.20 cm
  IL-1 content: 43.77 ± 10.69 pg/mL
Ulcerative colitis mice
  IL-1 content, in words: decrease
  colon length, in words: significantly increase
  total times of hematochezia, in words: reduce
[2]
  IC50: 2.15 µM

## Cn1c(C(=O)N2CCC(C(=O)Nc3cccc(Cl)c3)CC2)cc2ccccc21 [MAGLZ-II-18 (c)]
[1]; high dose 30 mg/kg ig 20 d
  Colon 5-HT: 14.34±2.40^∗∗∗ µg/mg
  Serum 5-HT: 29.03±5.29^∗∗∗ µg/ml
[1]; [3]
  AWR scoring: 1.38±0.51^∗∗ ∗
[1]; [4]
  AWR scoring: 2.20±0.57^∗∗∗
[1]; [5]
  AWR scoring: 2.96±0.70^∗∗∗
[1]; low dose 7.5 mg/kg ig 20 d
  Colon 5-HT: 16.84 ± 2.87 µg/mg
  Serum 5-HT: 34.2 ± 5.37 µg/mL
[1]; [6]
  AWR scoring: 2.28±0.58
[1]; [7]
  AWR scoring: 3.20±0.43
[1]; [8]
  AWR scoring: 3.61±0.24
[1]; middle dose 15 mg/kg ig 20 d
  Colon 5-HT: 14.99±2.90^∗∗ µg/mg
  Serum 5-HT: 31.88±4.40^∗∗ µg/ml
[1]; [9]
  AWR scoring: 1.79±0.23^∗∗ ∗
[1]; [10]
  AWR scoring: 2.87±0.65^∗∗
[1]; [11]
  AWR scoring: 3.27±0.51^∗∗
[1]
  5-HT level in colon and serum, in words: significantly decrease
  AWR scoring, in words: significantly decrease
Ulcerative colitis mice; high dose 30 mg/kg ig
  Total times of hematochezia within the four periods: 31.80±6.6
  Colon length: 6.65±0.67 cm
  IL-1 content: 45.10 ± 8.88 pg/mL
Ulcerative colitis mice; low dose 7.5 mg/kg ig
  Total times of hematochezia within the four periods: 43.10±7.59
  Colon length: 6.25±1.17 cm
  IL-1 content: 48.08 ± 13.18 pg/mL
Ulcerative colitis mice; middle dose 15 mg/kg ig
  Total times of hematochezia within the four periods: 43.20±5.31
  Colon length: 6.47±0.71 cm
  IL-1 content: 44.09 ± 9.13 pg/mL
Ulcerative colitis mice
  IL-1 content, in words: decrease
  colon length, in words: significantly increase
  total times of hematochezia, in words: reduce
[2]
  IC50: 0.0026 µM
